# Assay results reported in ChEMBL document CHEMBL1140824, “Hepatoselectivity of statins: design and synthesis of 4-sulfamoyl pyrroles as HMG-CoA reductase inhibitors” (Bioorg Med Chem Lett, 2008).
# Key:
# [1] = target: T1, 3-hydroxy-3-methylglutaryl-coenzyme A reductase (Rattus norvegicus, UniProt P51639); assay: Inhibition of rat microsomal HMGCoA reductase
# T1 sequence (P51639 whole entry): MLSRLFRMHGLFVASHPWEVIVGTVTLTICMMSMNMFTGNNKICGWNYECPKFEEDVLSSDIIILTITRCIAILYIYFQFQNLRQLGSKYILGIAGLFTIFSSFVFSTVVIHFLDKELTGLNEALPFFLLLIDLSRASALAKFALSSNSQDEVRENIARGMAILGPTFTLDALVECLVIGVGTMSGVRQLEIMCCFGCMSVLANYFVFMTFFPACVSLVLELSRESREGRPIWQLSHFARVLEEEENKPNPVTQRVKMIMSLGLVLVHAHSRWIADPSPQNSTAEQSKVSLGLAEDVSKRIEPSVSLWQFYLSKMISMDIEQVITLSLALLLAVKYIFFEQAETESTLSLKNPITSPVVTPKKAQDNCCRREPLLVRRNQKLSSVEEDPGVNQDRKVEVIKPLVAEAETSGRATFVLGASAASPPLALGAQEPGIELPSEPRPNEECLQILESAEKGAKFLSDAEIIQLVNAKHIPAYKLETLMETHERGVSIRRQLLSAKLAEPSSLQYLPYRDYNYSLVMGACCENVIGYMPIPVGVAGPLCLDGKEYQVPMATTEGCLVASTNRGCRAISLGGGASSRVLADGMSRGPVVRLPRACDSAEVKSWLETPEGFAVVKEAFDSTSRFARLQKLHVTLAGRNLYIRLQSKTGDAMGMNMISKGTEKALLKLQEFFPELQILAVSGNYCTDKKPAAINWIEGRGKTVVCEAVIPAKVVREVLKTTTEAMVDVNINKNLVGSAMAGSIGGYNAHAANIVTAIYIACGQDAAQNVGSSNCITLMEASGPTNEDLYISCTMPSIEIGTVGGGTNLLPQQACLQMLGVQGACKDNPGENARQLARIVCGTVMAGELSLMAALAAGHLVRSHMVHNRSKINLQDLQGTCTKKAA
# Hepatocyte [2] = assay: Inhibition of cholesterol synthesis in rat hepatocyte; assay type: functional, cell-based
# L6 = assay: Inhibition of cholesterol synthesis in rat L6 myocyte; assay type: functional, cell-based
# Hepatocyte [3] = assay: Selectivity, ratio of IC50 for rat L6 myocyte to IC50 for rat hepatocyte; assay type: functional
# Mus musculus = assay: Inhibition of acute cholesterol synthesis in mouse at 1 mg/kg; assay type: functional; conditions: read-out: Inhibition
# Syrian golden hamster = assay: Reduction of LDL cholesterol level in syrian golden hamster plasma; assay type: functional, Mesocricetus auratus
# [4] = Cmax in human; assay type: ADME, organism-based; conditions: in vivo
# [5] = Ratio of Cmax for human to IC50 for rat L6 myocyte; assay type: functional
# Homo sapiens = organism: Homo sapiens; assay: Incidence of myalgia in human; assay type: ADME, organism-based; conditions: in vivo
Structure (SMILES),IC50 [1],Cmax [4],IC50 (Hepatocyte [2]),IC50 (L6),Ratio IC50 (Hepatocyte [3]),inhibition in vivo at 1 mg/kg (Mus musculus),Inhibition (Syrian golden hamster),Ratio [5],Activity (Homo sapiens)
CC(C)c1c(S(=O)(=O)N2CCc3ccccc3C2)c(-c2ccc(F)cc2)c(-c2ccc(F)cc2)n1CC[C@@H](O)C[C@@H](O)CC(=O)[O-].[Na+],8.4 nM,,2.5 nM,2500 nM,984,,,,
CC(C)c1c(S(=O)(=O)Nc2cccc(O)c2)c(-c2ccc(F)cc2)c(-c2ccc(F)cc2)n1CC[C@@H](O)C[C@@H](O)CC(=O)[O-].[Na+],9.4 nM,,0.4 nM,2500 nM,6250,44.2%,,,
CC(C)c1c(S(=O)(=O)N2CCSCC2)c(-c2ccc(F)cc2)c(-c2ccc(F)cc2)n1CC[C@@H](O)C[C@@H](O)CC(=O)[O-].[Na+],9.7 nM,,3.3 nM,5700 nM,1748,15%,,,
CC(C)c1c(S(=O)(=O)Nc2ccc(S(N)(=O)=O)cc2)c(-c2ccc(F)cc2)c(-c2ccc(F)cc2)n1CC[C@@H](O)C[C@@H](O)CC(=O)[O-].[Na+],4.9 nM,,2.7 nM,4380 nM,1622,15%,,,
CC(C)c1c(S(=O)(=O)Nc2cccc(C(N)=O)c2)c(-c2ccc(F)cc2)c(-c2ccc(F)cc2)n1CC[C@@H](O)C[C@@H](O)CC(=O)[O-].[Na+],18 nM,,5 nM,36000 nM,7340,,,,
CC(C)c1c(S(=O)(=O)N2CCOCC2)c(-c2ccccc2)c(-c2ccc(F)cc2)n1CC[C@@H](O)C[C@@H](O)CC(=O)[O-].[Na+],,,0.8 nM,10000 nM,12469,55.6%,11%,,
CC(C)c1c(S(=O)(=O)N2CCN(C)CC2)c(-c2ccccc2)c(-c2ccc(F)cc2)n1CC[C@@H](O)C[C@@H](O)CC(=O)[O-].[Na+],2.7 nM,,3 nM,10500 nM,3559,,,,
CC(C)c1c(S(=O)(=O)N(C)Cc2ccccc2)c(-c2ccccc2)c(-c2ccc(F)cc2)n1CC[C@@H](O)C[C@@H](O)CC(=O)[O-].[Na+],8.5 nM,,0.25 nM,140 nM,566,,,,
CC(C)c1c(S(=O)(=O)Nc2ccccc2)c(-c2ccccc2)c(-c2ccc(F)cc2)n1CC[C@@H](O)C[C@@H](O)CC(=O)[O-].[Na+],9 nM,,0.57 nM,20 nM,34,49.2%,,,
CC(C)c1c(S(=O)(=O)Nc2ccc(C(N)=O)cc2)c(-c2ccc(F)cc2)c(-c2ccc(F)cc2)n1CC[C@@H](O)C[C@@H](O)CC(=O)[O-].[Na+],5.8 nM,,1.8 nM,2340 nM,1300,34.4%,,,
CC(C)c1c(S(=O)(=O)N(C)Cc2ccccc2)c(-c2ccc(F)cc2)c(-c2ccc(F)cc2)n1CC[C@@H](O)C[C@@H](O)CC(=O)[O-].[Na+],8 nM,,0.69 nM,550 nM,797,,,,
CC(C)c1c(S(=O)(=O)N(C)C)c(-c2ccccc2)c(-c2ccc(F)cc2)n1CC[C@@H](O)C[C@@H](O)CC(=O)[O-].[Na+],6.5 nM,,0.45 nM,1380 nM,3066,,,,
CNS(=O)(=O)c1c(-c2ccc(F)cc2)c(-c2ccc(F)cc2)n(CC[C@@H](O)C[C@@H](O)CC(=O)O)c1C(C)C,27 nM,,0.22 nM,,,33%,,,
CC(C)c1c(C(=O)Nc2ccccc2)c(-c2ccccc2)c(-c2ccc(F)cc2)n1CC[C@@H](O)C[C@@H](O)CC(=O)O [ATORVASTATIN],,,0.99 nM,142 nM,,75.2%,,,
CC[C@H](C)C(=O)O[C@H]1C[C@H](O)C=C2C=C[C@H](C)[C@H](CC[C@@H](O)C[C@@H](O)CC(=O)O)[C@H]21 [PRAVASTATIN],,100 nM,,,444,,,0.01,10.9%
CC(C)c1nc(N(C)S(C)(=O)=O)nc(-c2ccc(F)cc2)c1/C=C/[C@@H](O)C[C@@H](O)CC(=O)O [ROSUVASTATIN],3.7 nM,75 nM,,,926,82.4%,62%,0.3,

# Now from value to compound, other results behind:
IC50 [1],Cmax [4],Structure (SMILES),IC50 (Hepatocyte [2]),IC50 (L6),Ratio IC50 (Hepatocyte [3]),inhibition in vivo at 1 mg/kg (Mus musculus),Inhibition (Syrian golden hamster),Ratio [5],Activity (Homo sapiens)
2 nM,,CC(C)c1c(S(=O)(=O)Nc2ccccc2)c(-c2ccc(F)cc2)c(-c2ccc(F)cc2)n1CC[C@@H](O)C[C@@H](O)CC(=O)[O-].[Na+],0.96 nM,45 nM,45,,,,
13 nM,,CC(C)c1c(S(=O)(=O)NCc2ccccc2)c(-c2ccc(F)cc2)c(-c2ccc(F)cc2)n1CC[C@@H](O)C[C@@H](O)CC(=O)[O-].[Na+],0.37 nM,2200 nM,5945,58.6%,,,
1.8 nM,,CC(C)c1c(S(=O)(=O)N2CCC2)c(-c2ccccc2)c(-c2ccc(F)cc2)n1CC[C@@H](O)C[C@@H](O)CC(=O)[O-].[Na+],1.1 nM,2150 nM,1954,34.8%,,,
6.1 nM,,CC(C)c1c(S(=O)(=O)N(C)C)c(-c2ccc(F)cc2)c(-c2ccc(F)cc2)n1CC[C@@H](O)C[C@@H](O)CC(=O)[O-].[Na+],0.75 nM,1400 nM,1866,58.8%,30%,,
1 nM,,CC(C)c1c(S(=O)(=O)Nc2cccc(CC(N)=O)c2)c(-c2ccc(F)cc2)c(-c2ccc(F)cc2)n1CC[C@@H](O)C[C@@H](O)CC(=O)[O-].[Na+],1.4 nM,10000 nM,7299,,,,
2.6 nM,,CC(C)c1c(S(=O)(=O)N2CCCC2)c(-c2ccccc2)c(-c2ccc(F)cc2)n1CC[C@@H](O)C[C@@H](O)CC(=O)[O-].[Na+],0.5 nM,5200 nM,10400,75.9%,38%,,
2.9 nM,,CC(C)c1c(S(=O)(=O)N2CCCCC2)c(-c2ccccc2)c(-c2ccc(F)cc2)n1CC[C@@H](O)C[C@@H](O)CC(=O)[O-].[Na+],0.67 nM,7000 nM,10479,56%,,,
15 nM,,CC(C)c1c(S(=O)(=O)Nc2ccc(F)cc2)c(-c2ccc(F)cc2)c(-c2ccc(F)cc2)n1CC[C@@H](O)C[C@@H](O)CC(=O)[O-].[Na+],0.47 nM,60 nM,127,51.8%,,,
,25 nM,COCc1c(C(C)C)nc(C(C)C)c(/C=C/[C@@H](O)C[C@@H](O)CC(=O)O)c1-c1ccc(F)cc1 [CERIVASTATIN],,7 nM,4.1,,,3.6,
,120 nM,CCC(C)(C)C(=O)O[C@H]1C[C@@H](C)C=C2C=C[C@H](C)[C@H](CC[C@@H]3C[C@@H](O)CC(=O)O3)[C@H]21 [SIMVASTATIN],,150 nM,,,,,18.2%
